Entries after “also recorded” stand apart in the source; their conditions may differ.
Legend:
infant fecal bacteria = test: In vitro substrate fermentation model with infant feces (pH, SCFA, lactate); format: cell-based, human infant
Bifidobacterium spp. = test: qPCR of bacterial populations in in vitro fecal fermentation; format: cell-based; settings: overall, 0-12 h fermentation; sodium salt
bifidobacteria strains = test: Bacterial growth assay (OD600), panel of 12 strains; format: cell-based, Bifidobacterium; settings: 1% carbohydrate in sMRS+cysteine
Protocol: (§1) Coy Laboratory Products, Grass Lake, Mich.). Subsequently, the cultures are passed twice on a semi-synthetic MRS medium ([…] which is supplemented with 1% (w/v) filter-sterilized glucose as the sole carbohydrate source. […] For bifidobacteria strains, the same procedure is followed except all media are supplemented with 0.5 g/l L-cysteine/HCl. [table] After the 2nd pass in sMRS+glucose+cysteine, the cultures are washed once with 10 mL of sterile sMRS+cysteine (no carbohydrate), resuspended in 10 ml of sterile sMRS+cysteine (no carbohydrate) and then used as a 1% inoculum. The carbohydrates are sterilized with a 0.22 micron filter and used at a 1% final concentration. Cell growth is performed in 250 μL of sMRS+cysteine covered with 50 μL of mineral oil in a Bioscreen 100-well Honeycomb plate. […] The plate reader is operated in discontinuous mode, with absorbance readings performed in 30-minute intervals, and preceded by 30-second shaking intervals at maximum speed. Controls consist of inoculated medium lacking carbohydrate. […] All three plates include a positive control (glucose) and negative control (no carbohydrate). The OD600 data for each carbohydrate is corrected by subtracting the OD600 of the basal media (sMRS)+cysteine from the sample plate for each probiotic. Maximum OD is determined by inspection of the corrected growth data. OD is determined by subtracting the initial corrected OD (time point 0) from the maximum corrected OD. Samples are grown in biologically independent triplicates and the resulting growth kinetic data are expressed as the mean of these replicates. For the growth curve plots, OD600 vs. time is first plotted for the bacteria grown on medium lacking carbohydrate (sMRS). For all other carbohydrates, the OD600 data is corrected by subtracting the OD600 of sMRS.

B. infantis ATCC 15697 = test: Bacterial growth assay (OD600); format: cell-based, Bifidobacterium infantis; settings: 1% carbohydrate in sMRS+cysteine
Protocol: as §1

B. infantis M-63 = test: Bacterial growth assay (OD600); format: cell-based, Bifidobacterium infantis; settings: 1% carbohydrate in sMRS+cysteine
Protocol: as §1

HT-29 cells [1] = test: HT-29 cell proliferation, BrdU assay; format: cell-based, human; settings: Example 48: LNnT or 2′FL 20, 200, 2000 mg/L; 6′SL 40, 400; 72 hours; sodium salt
Protocol: In a first experiment, HT-29 cells, which model the immature epithelial cells of the small intestine, are incubated in a humidified atmosphere of 5% carbon dioxide at 37 C in the presence of LNnT at concentrations of 0 mg/L (“0”), 100 mg/L (“100”), 200 mg/L (“200”), and 400 mg/L (“400”) for either 48 hours or 72 hours. The culture medium utilized is Dulbecco's Modified Eagle Medium (Life Technologies, Foster City Calif.) supplemented with 10% fetal calf serum and 2 mM glutamine. The control consists of a combination of 91.5 mg lactose and 62.4 mg galactosamine (“LG”) per Liter of the Dulbecco's Modified Eagle Medium set forth above. The impact of the LNnT at various levels and the control on HT-29 cell proliferation is measured using a conventional BrdU assay, which measures the number of cells that have recently synthesized DNA.
(§2) In a first experiment, HT-29 cells, which model the immature epithelial cells of the small intestine, are incubated in a humidified atmosphere of 5% carbon dioxide at 37° C. in the presence of LNnT or 2′FL at concentrations of 0 mg/L (“0”), 20 mg/L (“20”), 200 mg/L (“200”), and 2000 mg/L (“2000”) or in the presence of 6′SL at concentrations of 0 mg/mL (“0”), 40 mg/mL (“40”), 400 mg/mL (“400”), and 4000 mg/mL (“4000”) for 72 hours. The culture medium utilized is Dulbecco's Modified Eagle Medium (Life Technologies, Foster City Calif.) supplemented with 10% fetal calf serum and 2 mM glutamine. The controls (“energy”) consist of 91.5 mg lactose and 64.2 mg N-acetyllactosamine/L for LNnT; 133 mg lactose and 67 mg fucose/L for 2′FL; and 195 mg lactose and 205 mg/L sialic acid for 6′SL. The impact of the LNnT, 2′FL, and 6′SL at various levels and the controls on HT-29 cell proliferation is measured using a conventional BrdU assay, which measures the number of cells that have recently synthesized DNA. […] Additionally, the impact of LNnT, 2′FL, and 6′SL at various levels and the controls on the alkaline phosphatase activity per milligram of protein for HT-29 cells, which is an indicator of cell differentiation, is measured.

HT-29 cells [2] = test: Alkaline phosphatase activity per milligram of protein (cell differentiation), HT-29; format: cell-based, human; settings: Example 48: LNnT or 2′FL 20, 200, 2000 mg/L; 6′SL 40, 400; 72 hours
Protocol: as §2

Caco-2 cells = test: Alkaline phosphatase activity per milligram of protein (cell differentiation), Caco-2; format: cell-based, human; settings: Example 48: LNnT or 2′FL 20, 200, 2000 mg/L; 6′SL 40, 400, 4000 mg/mL; 72 hours
Protocol: In a second experiment, Caco-2 cells, which model more mature epithelial cells of the small intestine, are incubated in a humidified atmosphere of 5% carbon dioxide at 37° C. in the presence of LNnT or 2′FL at concentrations of 0 mg/L (“0”), 20 mg/L (“20”), 200 mg/L (“200”), and 2000 mg/L (“2000”) or in the presence of 6′SL at concentrations of 0 mg/mL (“0”), 40 mg/mL (“40”), 400 mg/mL (“400”), and 4000 mg/mL (“4000”) for 72 hours. The culture medium utilized is Dulbecco's Modified Eagle Medium (Life Technologies, Foster City Calif.) supplemented with 10% fetal calf serum and 2 mM glutamine. The controls (“energy”) consist of 91.5 mg lactose and 64.2 mg N-acetyllactosamine/L for LNnT; 133 mg lactose and 67 mg fucose/L for 2′FL; and 195 mg lactose and 205 mg sialic acid/L for 6′SL. The impact of the LNnT, 2′FL, and 6′SL at various levels and the control on Caco-2 cell proliferation is measured using a conventional BrdU assay, which measures the number of cells that have recently synthesized DNA. […] Additionally, the impact of LNnT, 2′FL, and 6′SL at various levels and the controls on the alkaline phosphatase activity per milligram of protein for Caco-2 cells, which is an indication of cell differentiation, is measured.

B. breve ATCC 15700 = test: Bacterial growth assay (OD600); format: cell-based, Bifidobacterium breve; settings: 1% carbohydrate in sMRS+cysteine
Protocol: Coy Laboratory Products, Grass Lake, Mich.). Subsequently, the cultures are passed twice on a semi-synthetic MRS medium ([…] which is supplemented with 1% (w/v) filter-sterilized glucose as the sole carbohydrate source. […] For bifidobacteria strains, the same procedure is followed except all media are supplemented with 0.5 g/l L-cysteine/HCl. […] After the 2nd pass in sMRS+glucose+cysteine, the cultures are washed once with 10 mL of sterile sMRS+cysteine (no carbohydrate), resuspended in 10 ml of sterile sMRS+cysteine (no carbohydrate) and then used as a 1% inoculum. The carbohydrates are sterilized with a 0.22 micron filter and used at a 1% final concentration. Cell growth is performed in 250 μL of sMRS+cysteine covered with 50 μL of mineral oil in a Bioscreen 100-well Honeycomb plate. […] The plate reader is operated in discontinuous mode, with absorbance readings performed in 30-minute intervals, and preceded by 30-second shaking intervals at maximum speed. Controls consist of inoculated medium lacking carbohydrate. […] Maximum OD is determined by inspection of the corrected growth data. OD is determined by subtracting the initial corrected OD (time point 0) from the maximum corrected OD. Samples are grown in biologically independent triplicates and the resulting growth kinetic data are expressed as the mean of these replicates. […]

## CC(=O)N[C@H]1C([C@H](O)[C@H](O)CO)O[C@@](OCC2O[C@@H](O[C@@H]3C(CO)OC(O)C(O)[C@H]3O)C(O)[C@@H](O)[C@H]2O)(C(=O)[O-])C[C@H]1O.[Na+] (stereo in doubt) [6′SL, α-(2-6′)-N-Acetylneuraminyl-lactose sodium salt]
Infant fecal bacteria
  fermentation rate: about 1,809 μg/g of dry matter/hour
Infant fecal bacteria; 3 and 6 h
  acetate production: intermediate
Infant fecal bacteria; 12 h
  acetate production, formula fed versus breast fed infants: greater
Infant fecal bacteria; 12 h of fermentation
  propionate production: large increase
Infant fecal bacteria; 12 h of fermentation, sodium salt
  total SCFA production: greater (P<0.05); also recorded: substantial amounts of SCFA
Infant fecal bacteria; after 3 and 6 h of fermentation
  total SCFA production: lower (P<0.05) with 6′SL compared to GOS
Infant fecal bacteria; after 6 and 12 h of fermentation
  total SCFA production, formula fed versus breast fed infants: greater (P=0.01) fermentation by formula fed infants
Infant fecal bacteria; overall
  propionate production: greater (P<0.0001) propionate production than all other substrates
Infant fecal bacteria; overall, sodium salt
  fermentability by infant fecal bacteria: highly fermentable; also recorded: readily fermented
Infant fecal bacteria; up to 12 h, sodium salt
  lactate accumulation: no lactate accumulation; also recorded: little lactate had accumulated
Bifidobacterium spp.
  bifidobacteria populations: may also be bifidogenic; also recorded: tended to generally increase bifidobacteria levels
Bifidobacteria strains
  growth / ability to ferment (OD600): only B. infantis ATCC 15697 and B. infantis M-63 are able to ferment
B. infantis ATCC 15697
  growth / ability to ferment (OD600): able to ferment
B. infantis M-63
  growth / ability to ferment (OD600): able to ferment
HT-29 cells [1]
  HT-29 cell proliferation: capable of reducing cell proliferation at higher doses; also recorded: inhibits intestinal cell proliferation in immature epithelial cells
HT-29 cells [2]
  alkaline phosphatase activity per milligram of protein (cell differentiation): no apparent effect
Caco-2 cells
  alkaline phosphatase activity per milligram of protein (cell differentiation): no apparent effect

## CC(=O)N[C@H]1[C@H]([C@H](O)[C@H](O)CO)O[C@@](O[C@H]2[C@@H](O)[C@@H](CO)O[C@@H](O[C@H]3[C@H](O)[C@@H](O)C(O)O[C@@H]3CO)[C@@H]2O)(C(=O)O)C[C@@H]1O (stereo partly drawn) [3′SL, 3′-Sialyllactose]
Bifidobacteria strains
  growth / ability to ferment (OD600): only B. infantis ATCC 15697 and B. infantis M-63 are able to ferment
B. infantis ATCC 15697
  growth / ability to ferment (OD600): able to ferment
B. infantis M-63
  growth / ability to ferment (OD600): able to ferment

## C[C@H](O)[C@@H](O)[C@@H](O)[C@H](O)C=O [L-fucose, reference compound]
Bifidobacteria strains
  growth / ability to ferment (OD600): None of the bifidobacteria are able to ferment
B. infantis ATCC 15697
  growth / ability to ferment (OD600): not able to ferment
B. infantis M-63
  growth / ability to ferment (OD600): not able to ferment

## CC(=O)N[C@@H]1[C@@H](O)[C@H](O)[C@@H](CO)O[C@H]1O [NAG, reference compound]
Bifidobacteria strains
  growth / ability to ferment (OD600): Only B. breve ATCC 15700 is able to ferment
B. breve ATCC 15700
  growth / ability to ferment (OD600): able to ferment

## O=C(CO)[C@@H](O)[C@H](O)[C@H](O)CO [fructose]
Bifidobacteria strains
  growth / ability to ferment (OD600): majority of bifidobacteria is able to ferment

## OC[C@H]1O[C@@H](O[C@H]2[C@H](O)[C@@H](O)C(O)O[C@@H]2CO)[C@H](O)[C@@H](O)[C@H]1O (stereo partly drawn) [lactose]
Bifidobacteria strains
  growth / ability to ferment (OD600): the bifidobacteria, which is not able to ferment galactose, also has reduced growth on lactose

Reference: patent US11337990B2, “Human milk oligosaccharides to promote growth of beneficial bacteria” (ABBOTT LABORATORIES, priority 2010, dated 2022)
